Measurements taken from patent publication US12161722B2, “Bifunctional heterocyclic compound having BTK degradation function via ubiquitin proteasome pathway, and use thereof” (KOREA RESEARCH INSTITUTE OF CHEMICAL TECHNOLOGY, priority 2021, dated 2024).

Assays:
WT BTK protein = molecular target: T1, WT BTK protein (Homo sapiens, UniProt Q06187); experiment: BTK protein degradation assay (Western blotting), WT BTK; format: cell-based; details: concentration range accounting for 50% degradation of WT BTK protein, TMD-8 or RAMOS cells, 24 hours
T1 construct: measured for intracellular BTK protein levels by Western blotting; endogenous in cells; host or cells: TMD-8 or RAMOS cells
Outline: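 BTK levels were read by Western blotting (GAPDH and β-actin normalisers) in RIPA lysates of TMD-8 cells exposed to compounds for 24 h at 1×10^6 cells/mL. Results scored in ranges of the concentration producing 50% loss of WT BTK.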

C481S BTK protein = molecular target: T2, C481S BTK protein (Homo sapiens, UniProt Q06187, C481S); experiment: BTK protein degradation assay (Western blotting), C481S BTK; format: cell-based; details: concentration range accounting for 50% degradation of C481S BTK protein, 293T BTK MUT (C481S) cells
T2 construct: expressed in transfected cells; host or cells: 293T BTK MUT (C481S) cells
Method: TMD-8, RAMOS, or 293T BTK MUT (C481S) cells were treated with the synthesized compounds and measured for intracellular BTK protein levels by Western blotting. The protocol of the experiment using TMD-8 cells is as follows.
The 12-well plates were treated as follows. A 10 mM stock was 1/10 diluted in series with DMSO ([…]) to form final concentrations of 10, 1, 0.1, 0.01, 0.001, and 0.0001 mM. The compounds with such concentrations were applied to cells, followed by harvesting the cells 24 hours later. For a negative control, a 1/10 dilution of DMSO in the medium (3 mL DMSO+27 mL medium) was used.
The 1-mL cell culture in each well was passed many times through a pipette and then transferred into a 1.5-mL microtube before centrifugation (500 g, 5 min, 4° C.). The supernatant was discarded and the cell pellet was washed with PBS. After centrifugation (500 g, 5 min, 4° C.) again, the supernatant was discarded and the cell pellet was taken.
A lysis buffer was prepared as follows. RIPA buffer (Biosesang, RC2038-050-00)+0.5 mM PMSF (SIGMA, P7626)+1×Protease/Phosphatase Inhibitor (Cell signaling, 5872S) was added in an amount […] per well and left for 30 minutes on ice (vortexing at 0 and 30 minutes) before sonication (5 cycles of pulse for 10 seconds and rest for 30 seconds, 70% amplification). The supernatant obtained by centrifugation (15000 g, 15 min, 4° C.) was transferred into a new microtube. Cells in each well of 96-well plates were 1/2 diluted with the RIPA buffer and incubated at 37° C. for 30 minutes with […] of a 50:1 mixture of BCA reagents A and B in BCA Protein Assay Kit (iNtRON, 21071). After being cooled for 10 minutes, the 96-well plates were measured for absorbance at 562 nm on the BioTek, SYNERGY H1 microplate reader. Samples were prepared by protein quantification based on the absorbance measurements and then boiled at 70° C. for 10 minutes. The sample buffer used in the case was prepared by mixing a NuPAGE or a Bolt 4× sample buffer (Invitrogen) and its 10× sample reducing agent depending on the gel to be used, and protein dilution was made in a RIPI buffer.
The samples were loaded in the same amount into a NuPAGE or Bolt Bis-tris 4-12% gradient gel and allowed to run therein (200 V, 35 minutes). The separated proteins were transferred onto a […] NC membrane, using Trans-blot Turbo (BIO-RAD) (1.3 A constant, 25V limit, 15 minutes). The membrane was blocked at room temperature for 1 hour with skim milk or Intercept Blocking Buffer (LI-COR, 927-60001):0.1% TBST=1:1. The membrane was incubated with Anti BTK Rabbit (1:1,000 in 5% skim milk/0.2% TBST, size: 77 kDa, Cell signaling Technology) at 4° C. overnight O/N or at room temperature for 2 hours and with Anti GAPDH Rabbit (1:10,000 in 5% BSA/0.2% TBST, size: 36 kDa, GENETEX) and Anti β-actin mouse (1:10,000 in 5% BSA/0.2% TBST, RT, size: 43 kDa, GENETEX) at room temperature for 1 or 3 hours. Then, the membrane was washed three times with 0.5% TBST for 5 minutes each time before incubation with the second antibody Anti-Rabbit IgG (1:5,000 in 5% Skim milk/TBST, CST), IRDye® 800CW Goat anti-Rabbit IgG Secondary Antibody (1:10,000 in 5% skim/TBST, RT 45 min), or IRDye® 680RD Goat anti-Mouse IgG Secondary Antibody (1:10,000 in 5% skim/TBST, RT 45 min) for 45 minutes at room temperature in a rocker. The membrane was washed five times with 0.5% TBST for 5 minutes in each time, followed by detection with LI-COR, Odyssey. In this regard, the detection proceeded, as it was, for house-keeping genes while using SuperSignal West Pico PLUS Chemiluminescent Substrate or SuperSignal West femto Maximum Sensitivity Substrate for BTK detection.
According to the concentration ranges of compounds accounting for 50% degradation of WT BTK protein and C481S BTK protein, the activities are expressed as +++(0.0001-0.01 μM), ++(0.01-1 μM), +(1-10 μM), −(>10 μM), and NT (not tested). […]

T1 sequence (Q06187 whole entry): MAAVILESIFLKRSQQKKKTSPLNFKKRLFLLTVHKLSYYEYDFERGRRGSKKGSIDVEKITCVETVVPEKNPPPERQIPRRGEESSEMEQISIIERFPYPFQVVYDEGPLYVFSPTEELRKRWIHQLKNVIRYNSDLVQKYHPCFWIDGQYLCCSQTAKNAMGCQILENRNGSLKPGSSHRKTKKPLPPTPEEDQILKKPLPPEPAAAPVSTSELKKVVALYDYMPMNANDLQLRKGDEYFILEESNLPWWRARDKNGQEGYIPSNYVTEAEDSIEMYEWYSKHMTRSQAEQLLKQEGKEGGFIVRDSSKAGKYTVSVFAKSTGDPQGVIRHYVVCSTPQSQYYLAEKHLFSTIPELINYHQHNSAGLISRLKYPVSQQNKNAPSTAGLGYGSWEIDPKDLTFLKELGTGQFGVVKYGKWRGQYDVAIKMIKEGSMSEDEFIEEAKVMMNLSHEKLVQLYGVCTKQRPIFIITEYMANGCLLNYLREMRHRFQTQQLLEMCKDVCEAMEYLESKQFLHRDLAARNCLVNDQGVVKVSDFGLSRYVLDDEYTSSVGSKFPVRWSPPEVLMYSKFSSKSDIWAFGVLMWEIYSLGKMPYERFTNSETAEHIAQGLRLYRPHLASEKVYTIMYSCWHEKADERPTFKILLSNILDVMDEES
T2 sequence (Q06187 whole entry C481S): as the sequence (Q06187 whole entry) above, with C481S counted along it

| DC50 (WT BTK protein) [nM] | DC50 (C481S BTK protein) [nM] | SMILES |
| --- | --- | --- |
| 10 to 1000 | > 10000 | Cc1cccc(C)c1Nc1nn(C)c2nc(Nc3ccc4c(c3)CN(C(=O)c3cn(CCOCCOCCOCCNC(=O)CNc5cccc6c5C(=O)N(C5CCC(=O)NC5=O)C6=O)nn3)CC4)ncc12 (stereo not shown) [Compound 19, N-(2-(2-(2-(2-(4-(7-((3-((2,6-Dimethylphenyl)amino)-1-methyl-1H-pyrazolo[3,4-d]pyrimidin-6-yl)amino)-1,2,3,4-tetrahydroisoquinoline-2-carbonyl)-1H-1,2,3-triazol-1-yl)ethoxy)ethoxy)ethoxy)ethyl)-2-((2-(2,6-dioxopiperidin-3-yl)-1,3-dioxoisoindolin-4-yl)amino)acetamide] |
| 0.1 to 10 | 1000 to 10000 | Cc1cccc(C)c1Nc1nn(C)c2nc(Nc3ccc4c(c3)CN(CCOCCNC(=O)CN3CCN(c5ccc6c(c5)C(=O)N(C5CCC(=O)NC5=O)C6=O)CC3)CC4)ncc12 (stereo not shown) [Compound 20, N-(2-(2-(7-((3-((2,6-Dimethylphenyl)amino)-1-methyl-1H-pyrazolo[3,4-d]pyrimidin-6-yl)amino)-3,4-dihydroisoquinolin-2 (1H)-yl)ethoxy)ethyl)-2-(4-(2-(2,6-dioxopiperidin-3-yl)-1,3-dioxoisoindolin-5-yl)piperazin-1-yl)acetamide] |
| 0.1 to 10 | 1000 to 10000 | Cc1cccc(C)c1Nc1nn(C)c2nc(Nc3ccc4c(c3)CN(CCOCCNC(=O)C3CCN(c5ccc6c(c5)C(=O)N(C5CCC(=O)NC5=O)C6=O)CC3)CC4)ncc12 (stereo not shown) [Compound 21, N-(2-(2-(7-((3-((2,6-Dimethylphenyl)amino)-1-methyl-1H-pyrazolo[3,4-d]pyrimidin-6-yl)amino)-3,4-dihydroisoquinolin-2 (1H)-yl)ethoxy)ethyl)-1-(2-(2,6-dioxopiperidin-3-yl)-1,3-dioxoisoindolin-5-yl)piperidine-4-carboxamide] |
| 0.1 to 10 | > 10000 | Cc1cccc(C)c1Nc1nn(C)c2nc(Nc3ccc4c(c3)CN(C(=O)CCOCCOCCOCCOCCNC(=O)CNc3ccc5c(c3)C(=O)N(C3CCC(=O)NC3=O)C5=O)CC4)ncc12 (stereo not shown) [Compound 22, N-(15-(7-((3-((2,6-dimethylphenyl)amino)-1-methyl-1H-pyrazolo[3,4-d]pyrimidin-6-yl)amino)-3,4-dihydroisoquinolin-2 (1H)-yl)-15-oxo-3,6,9,12-tetraoxapentadecyl)-2-((2-(2,6-dioxopiperidin-3-yl)-1,3-dioxoisoindolin-5-yl)amino)acetamide] |
| 0.1 to 10 | 1000 to 10000 | Cc1cccc(C)c1Nc1nn(C)c2nc(Nc3ccc4c(c3)CN(CCOCCOCC(=O)Nc3ccc5c(c3)C(=O)N(C3CCC(=O)NC3=O)C5=O)CC4)ncc12 (stereo not shown) [Compound 23, 2-(2-(2-(7-((3-((2,6-Dimethylphenyl)amino)-1-methyl-1H-pyrazolo[3,4-d]pyrimidin-6-yl)amino)-3,4-dihydroisoquinolin-2 (1H)-yl)ethoxy)ethoxy)-N-(2-(2,6-dioxopiperidin-3-yl)-1,3-dioxoisoindolin-5-yl)acetamide] |
| 0.1 to 10 | 1000 to 10000 | Cc1cccc(C)c1Nc1nn(C)c2nc(Nc3ccc4c(c3)CN(CCOCCNC(=O)C3CCN(c5cccc6c5C(=O)N(C5CCC(=O)NC5=O)C6=O)CC3)CC4)ncc12 (stereo not shown) [Compound 24, N-(2-(2-(7-((3-((2,6-Dimethylphenyl)amino)-1-methyl-1H-pyrazolo[3,4-d]pyrimidin-6-yl)amino)-3,4-dihydroisoquinolin-2 (1H)-yl)ethoxy)ethyl)-1-(2-(2,6-dioxopiperidin-3-yl)-1,3-dioxoisoindolin-4-yl)piperidine-4-carboxamide] |
| 0.1 to 10 | 1000 to 10000 | Cc1cccc(C)c1Nc1nn(C)c2nc(Nc3ccc4c(c3)CN(CCOCCNC(=O)COc3ccc5c(c3)C(=O)N(C3CCC(=O)NC3=O)C5=O)CC4)ncc12 (stereo not shown) [Compound 25, N-(2-(2-(7-((3-((2,6-Dimethylphenyl)amino)-1-methyl-1H-pyrazolo[3,4-d]pyrimidin-6-yl)amino)-3,4-dihydroisoquinolin-2 (1H)-yl)ethoxy)ethyl)-2-((2-(2,6-dioxopiperidin-3-yl)-1,3-dioxoisoindolin-5-yl)oxy)acetamide] |
| 0.1 to 10 | 1000 to 10000 | Cc1cccc(C)c1Nc1nn(C)c2nc(Nc3ccc4c(c3)CN(C(=O)[C@H]3CCCN3C(=O)C3CCN(c5ccc6c(c5)C(=O)N(C5CCC(=O)NC5=O)C6=O)CC3)CC4)ncc12 (stereo partly drawn) [Compound 26, 5-(4-((R)-2-(7-((3-((2,6-Dimethylphenyl)amino)-1-methyl-1H-pyrazolo[3,4-d]pyrimidin-6-yl)amino)-1,2,3,4-tetrahydroisoquinoline-2-carbonyl)pyrrolidine-1-carbonyl)piperidin-1-yl)-2-(2,6-dioxopiperidin-3-yl)isoindoline-1,3-dione] |
| 0.1 to 10 | 1000 to 10000 | Cc1cccc(C)c1Nc1nn(C)c2nc(Nc3ccc4c(c3)CN(CCOCCNC(=O)C3CN(c5ccc6c(c5)C(=O)N(C5CCC(=O)NC5=O)C6=O)C3)CC4)ncc12 (stereo not shown) [Compound 27, N-(2-(2-(7-((3-((2,6-Dimethylphenyl)amino)-1-methyl-1H-pyrazolo[3,4-d]pyrimidin-6-yl)amino)-3,4-dihydroisoquinolin-2 (1H)-yl)ethoxy)ethyl)-1-(2-(2,6-dioxopiperidin-3-yl)-1,3-dioxoisoindolin-5-yl)azetidine-3-carboxamide] |
| 0.1 to 10 | 0.1 to 10 | Cc1cccc(C)c1Nc1nn(C)c2nc(Nc3ccc4c(c3)CN(CC3CCN(C(=O)C5CCN(c6ccc7c(c6)C(=O)N(C6CCC(=O)NC6=O)C7=O)CC5)CC3)CC4)ncc12 (stereo not shown) [Compound 28, 5-(4-(4-((7-((3-((2,6-Dimethylphenyl)amino)-1-methyl-1H-pyrazolo[3,4-d]pyrimidin-6-yl)amino)-3,4-dihydroisoquinolin-2 (1H)-yl)methyl)piperidine-1-carbonyl)piperidin-1-yl)-2-(2,6-dioxopiperidin-3-yl)isoindoline-1,3-dione] |
| 0.1 to 10 | 10 to 1000 | Cc1cccc(C)c1Nc1nn(C)c2nc(Nc3ccc4c(c3)CN(CC3CCN(c5ccc6c(c5)C(=O)N(C5CCC(=O)NC5=O)C6=O)CC3)CC4)ncc12 (stereo not shown) [Compound 29, 5-(4-((7-((3-((2,6-Dimethylphenyl)amino)-1-methyl-1H-pyrazolo[3,4-d]pyrimidin-6-yl)amino)-3,4-dihydroisoquinolin-2 (1H)-yl)methyl)piperidin-1-yl)-2-(2,6-dioxopiperidin-3-yl)isoindoline-1,3-dione] |
